Assay results taken from paper doi:10.1101/2020.07.01.182642v1 (biorxiv, 2020).

Legend:
Conditions in all cases: binder
CAMK2A = CAMK2A (Homo sapiens, UniProt Q9UQM7)
PLK4 = molecular target: T1, PLK4 (Homo sapiens, UniProt O00444)
T1 sequence (O00444 1-970): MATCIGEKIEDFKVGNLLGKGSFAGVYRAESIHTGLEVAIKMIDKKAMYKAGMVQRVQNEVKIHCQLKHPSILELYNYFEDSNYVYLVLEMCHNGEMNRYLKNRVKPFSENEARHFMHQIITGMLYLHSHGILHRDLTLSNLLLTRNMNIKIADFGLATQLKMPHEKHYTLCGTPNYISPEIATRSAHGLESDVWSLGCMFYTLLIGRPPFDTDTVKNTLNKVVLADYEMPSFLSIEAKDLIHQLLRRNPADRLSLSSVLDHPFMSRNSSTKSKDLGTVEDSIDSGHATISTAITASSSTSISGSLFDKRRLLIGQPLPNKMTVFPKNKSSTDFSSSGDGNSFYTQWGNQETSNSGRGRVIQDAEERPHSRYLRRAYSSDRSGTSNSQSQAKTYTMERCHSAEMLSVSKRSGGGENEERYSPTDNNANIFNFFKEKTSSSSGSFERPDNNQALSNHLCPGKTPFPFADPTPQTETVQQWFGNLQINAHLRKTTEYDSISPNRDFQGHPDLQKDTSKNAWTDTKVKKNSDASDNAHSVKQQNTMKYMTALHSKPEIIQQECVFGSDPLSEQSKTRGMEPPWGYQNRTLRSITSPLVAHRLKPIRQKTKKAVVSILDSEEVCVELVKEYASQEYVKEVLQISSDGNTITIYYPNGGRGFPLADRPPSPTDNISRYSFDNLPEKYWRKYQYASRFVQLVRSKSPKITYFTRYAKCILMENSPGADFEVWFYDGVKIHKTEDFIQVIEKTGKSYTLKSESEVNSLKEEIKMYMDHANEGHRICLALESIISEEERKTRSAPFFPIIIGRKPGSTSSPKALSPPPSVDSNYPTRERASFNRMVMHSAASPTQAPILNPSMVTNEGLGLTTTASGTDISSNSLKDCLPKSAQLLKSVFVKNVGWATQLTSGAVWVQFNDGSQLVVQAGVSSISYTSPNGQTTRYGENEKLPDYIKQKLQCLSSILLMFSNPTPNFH

MAPK9 = MAPK9 (Homo sapiens, UniProt P45984)
MAPK9, sequence (P45984 whole entry): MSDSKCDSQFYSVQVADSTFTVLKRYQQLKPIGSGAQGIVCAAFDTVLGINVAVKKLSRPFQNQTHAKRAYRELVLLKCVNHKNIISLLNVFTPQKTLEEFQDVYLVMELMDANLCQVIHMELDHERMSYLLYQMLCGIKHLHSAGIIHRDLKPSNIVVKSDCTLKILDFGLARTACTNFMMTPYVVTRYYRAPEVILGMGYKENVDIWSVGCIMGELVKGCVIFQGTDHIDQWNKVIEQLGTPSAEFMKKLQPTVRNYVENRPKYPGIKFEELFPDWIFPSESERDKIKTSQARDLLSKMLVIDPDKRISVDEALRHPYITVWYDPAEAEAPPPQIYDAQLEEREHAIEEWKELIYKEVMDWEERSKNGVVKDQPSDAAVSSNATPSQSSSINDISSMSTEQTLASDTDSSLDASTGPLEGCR

LYN = LYN (Homo sapiens, UniProt P07948)
LYN, sequence (P07948 whole entry): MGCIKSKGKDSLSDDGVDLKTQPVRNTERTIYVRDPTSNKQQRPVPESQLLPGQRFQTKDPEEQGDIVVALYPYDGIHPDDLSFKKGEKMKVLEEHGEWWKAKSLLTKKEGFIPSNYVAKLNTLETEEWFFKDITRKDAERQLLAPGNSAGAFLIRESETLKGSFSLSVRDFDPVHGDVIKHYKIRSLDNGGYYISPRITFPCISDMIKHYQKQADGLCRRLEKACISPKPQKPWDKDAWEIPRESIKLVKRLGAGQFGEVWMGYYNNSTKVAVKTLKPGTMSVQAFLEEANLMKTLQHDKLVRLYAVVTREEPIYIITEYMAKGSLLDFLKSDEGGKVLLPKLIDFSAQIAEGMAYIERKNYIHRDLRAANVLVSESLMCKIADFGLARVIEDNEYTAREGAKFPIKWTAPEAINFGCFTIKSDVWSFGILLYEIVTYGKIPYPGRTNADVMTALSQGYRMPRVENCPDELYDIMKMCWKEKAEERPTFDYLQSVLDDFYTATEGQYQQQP

CSNK2A1 = CSNK2A1 (Homo sapiens, UniProt P68400)
CSNK2A1, sequence (P68400 whole entry): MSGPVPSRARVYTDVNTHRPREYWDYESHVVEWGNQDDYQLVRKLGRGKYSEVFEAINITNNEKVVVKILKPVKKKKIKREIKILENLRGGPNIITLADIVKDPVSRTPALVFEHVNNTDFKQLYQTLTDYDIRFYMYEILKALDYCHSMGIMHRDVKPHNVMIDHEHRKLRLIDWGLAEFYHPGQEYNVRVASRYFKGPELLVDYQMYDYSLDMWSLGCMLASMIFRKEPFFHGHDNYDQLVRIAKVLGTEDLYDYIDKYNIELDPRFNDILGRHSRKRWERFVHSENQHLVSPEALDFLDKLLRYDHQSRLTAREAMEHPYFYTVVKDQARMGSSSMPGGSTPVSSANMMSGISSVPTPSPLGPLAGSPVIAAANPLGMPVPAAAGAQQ

GAK = molecular target: T2, GAK (Homo sapiens, UniProt O14976)
T2 sequence (O14976 1-1311): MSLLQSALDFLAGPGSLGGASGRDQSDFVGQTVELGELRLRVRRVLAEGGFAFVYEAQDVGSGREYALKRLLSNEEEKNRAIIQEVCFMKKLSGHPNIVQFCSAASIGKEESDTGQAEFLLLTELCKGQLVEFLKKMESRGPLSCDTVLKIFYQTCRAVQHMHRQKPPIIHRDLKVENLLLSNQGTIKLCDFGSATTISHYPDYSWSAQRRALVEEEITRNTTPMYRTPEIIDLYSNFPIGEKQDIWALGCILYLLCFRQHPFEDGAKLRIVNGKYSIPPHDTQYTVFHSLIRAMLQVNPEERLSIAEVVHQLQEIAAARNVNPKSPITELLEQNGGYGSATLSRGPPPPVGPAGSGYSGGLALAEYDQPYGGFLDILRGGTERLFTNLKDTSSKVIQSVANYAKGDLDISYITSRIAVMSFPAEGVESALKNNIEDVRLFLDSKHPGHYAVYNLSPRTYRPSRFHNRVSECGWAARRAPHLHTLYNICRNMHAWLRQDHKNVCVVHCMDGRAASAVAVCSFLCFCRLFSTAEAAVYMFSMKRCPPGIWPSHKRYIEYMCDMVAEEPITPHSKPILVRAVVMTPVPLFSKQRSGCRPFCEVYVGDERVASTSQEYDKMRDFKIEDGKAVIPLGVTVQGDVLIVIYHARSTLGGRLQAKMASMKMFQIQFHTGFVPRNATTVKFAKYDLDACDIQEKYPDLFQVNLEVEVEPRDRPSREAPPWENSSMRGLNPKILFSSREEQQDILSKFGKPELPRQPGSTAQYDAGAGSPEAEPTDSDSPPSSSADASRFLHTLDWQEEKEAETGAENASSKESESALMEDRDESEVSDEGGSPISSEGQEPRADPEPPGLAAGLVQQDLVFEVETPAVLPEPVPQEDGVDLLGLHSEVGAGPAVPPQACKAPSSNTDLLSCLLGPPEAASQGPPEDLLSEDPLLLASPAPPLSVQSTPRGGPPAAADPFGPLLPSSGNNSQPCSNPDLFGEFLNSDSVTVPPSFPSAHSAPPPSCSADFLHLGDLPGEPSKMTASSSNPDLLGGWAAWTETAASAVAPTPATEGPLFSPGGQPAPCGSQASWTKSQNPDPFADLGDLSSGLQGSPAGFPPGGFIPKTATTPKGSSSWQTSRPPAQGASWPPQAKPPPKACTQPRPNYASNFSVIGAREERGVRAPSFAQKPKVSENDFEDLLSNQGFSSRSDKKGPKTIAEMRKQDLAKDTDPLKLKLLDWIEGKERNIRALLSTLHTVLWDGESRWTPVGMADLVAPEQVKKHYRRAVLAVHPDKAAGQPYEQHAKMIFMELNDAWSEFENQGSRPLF

CAMK2A, sequence (Q9UQM7 whole entry): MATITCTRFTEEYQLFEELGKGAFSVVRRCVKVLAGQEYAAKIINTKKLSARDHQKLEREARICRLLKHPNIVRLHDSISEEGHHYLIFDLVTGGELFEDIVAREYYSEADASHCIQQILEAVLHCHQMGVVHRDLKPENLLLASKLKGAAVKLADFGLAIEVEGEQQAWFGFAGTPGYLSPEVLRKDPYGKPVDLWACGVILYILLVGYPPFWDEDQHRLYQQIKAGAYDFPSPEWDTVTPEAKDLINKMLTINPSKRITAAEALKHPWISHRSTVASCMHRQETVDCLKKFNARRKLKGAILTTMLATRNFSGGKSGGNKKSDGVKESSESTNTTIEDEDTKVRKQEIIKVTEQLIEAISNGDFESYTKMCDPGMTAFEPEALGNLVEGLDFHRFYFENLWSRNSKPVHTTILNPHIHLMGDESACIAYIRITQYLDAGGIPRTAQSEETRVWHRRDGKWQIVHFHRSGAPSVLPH

## CC(=O)c1cccc(-c2cnc3ccc(NCC4CC4)nn23)c1 [compound 1, K00135]
CAMK2A
  ΔTm inhibitor 1: 0.5 °C
PLK4
  ΔTm inhibitor 1: 2.6 °C
MAPK9
  ΔTm inhibitor 1: 0.8 °C
LYN
  ΔTm inhibitor 1: 2.4 °C
CSNK2A1
  ΔTm inhibitor 1: 3.3 °C
GAK
  ΔTm inhibitor 1: 7.3 °C

## CCN1/C(=C/C(C)=O)Sc2ccc(OC)cc21 [compound 2, TG003]
CAMK2A
  ΔTm inhibitor 2: -0.1 °C
PLK4
  ΔTm inhibitor 2: 0.2 °C
MAPK9
  ΔTm inhibitor 2: 0.4 °C
LYN
  ΔTm inhibitor 2: 0.1 °C
CSNK2A1
  ΔTm inhibitor 2: 2.6 °C
GAK
  ΔTm inhibitor 2: 0.2 °C

## Nc1nccc(-c2ccc3noc(-c4ccc(Cl)cc4)c3c2)n1 [compound 4, K00972]
CAMK2A
  ΔTm inhibitor 4: 0.1 °C
PLK4
  ΔTm inhibitor 4: 0.4 °C
MAPK9
  ΔTm inhibitor 4: 0.9 °C
LYN
  ΔTm inhibitor 4: 0.3 °C
CSNK2A1
  ΔTm inhibitor 4: 0.2 °C
GAK
  ΔTm inhibitor 4: 3.3 °C
